What all share (assay type): cell-based
Common to all, as to design: To assess STING degradation and recovery in human foreskin fibroblasts HFF-1 cells; host or cells: HFF-1 human foreskin fibroblasts

The target in test [1] is T1, STING (Homo sapiens, UniProt Q86WV6). The test is described as follows: Western Blot of diABZI-induced STING activation in primary human skin fibroblasts (Figure 9). The conditions noted are these: 5 µM; for LC3B lipidation / P-TBK1: 0.3 µM diABZI; for P-TBK1 / P-STING: versus diABZI c3 only; for P-STING: before (-2h, -1h), simultaneously with, or 15 minutes after 0.3 µM diABZI. The protocol:
(§1) To assess whether S1 STING ligands inhibit STING activation, primary human skin fibroblasts (Figure 9) or HFF-1 cells (Figure 10) were treated with various compounds which comprise only an S1 ligand domain and a Linker domain before undergoing Western Blot analysis as described below.
(§2) Cell culture methods as described above for primary human skin fibroblast and HFF-1 cells were used in the current experiments. Methods as described above for H596, H1650 and HaCat cells were applied for cell lysis and western blotting.
Cells were incubated with A9 or A11 for 1 or 2 hours before addition of diABZI c3, treated with test compound and diABZI c3 simultaneously, or treated with A9 or A11 after 15 minutes incubation with diABZI c3. As a control, cells were also treated with diABZI c3 alone.

In test [2] the target is T1, STING. The test is described as follows: Inhibition of STING-agonist-induced IFN-β and CXCL10 release (Figure 11). Conditions: for IFN media concentration: Figure 11A; for secretion of Functional Type I IFN / secretion of CXCL10: human skin fibroblasts, 5 µM, 0.3 µM diABZI; for secretion of Functional Type I IFN: Figure 11 (A); for secretion of CXCL10: Figure 11 (B); for CXCL10 media concentration: Figure 11B. As for the experimental part: HFF-1 cells were assessed for inhibition of STING-agonist-induced IFN-β and CXCL10 release in cells treated with Compounds A9 and A11.
HFF-1 cells were cultured as described in Example 7 above except that cells were seeded in a 24-well plate at 30,000 cells/well. […]

The target in test [3] is T1, STING. The test is described as follows: Western Blot of diABZI-induced STING activation in HFF-1 cells (Figure 10A). Conditions: 5 µM for 15 min, then 300 nM diABZI for 2 h or 5 h, versus diABZI c3 alone. As for the experimental part:
as §1, §2
In Figure 10A, HFF-1 cells were treated with 5 µM of compounds A11, A25, A26, or A30, or 0.5 µM STING antagonist control for 15 min followed prior to addition of 300 nM diABZI and incubation for 2 h or 5 h. The cells were lysed and analysed on WB. As additional controls, cells were left untreated (UT), treated with Lipofectamine (Lipo control) or with compounds A26 or A30 as single agent. […]
A general note: Immunoblotting shows a protein as a band on a membrane.

In test [4] the target is T1, STING. The test is described as follows: Western Blot of cGAMP-induced STING activation in HFF-1 cells (Figure 10B). Conditions: 5 µM for 15 min, then 8 µg/mL cGAMP for 2 h or 5 h, versus cGAMP alone. The protocol:
as §1, §2
(§3) In Figure 10B, similar experiments were performed as for Figure 10A, except that cells were activated with 8 µg/mL cGAMP instead of diABZI c3. In addition, the controls used in this set of experiments was A11, A25, A26 and A30 as a single agent with no cGAMP activation.

The target of test [5] is T1, STING. The test is described as follows: Western Blot of STING agonist activity of compounds as single agent in HFF-1 cells. Conditions: compound as single agent, no activation. The protocol: S1 is a STING ligand. […] Any standard method known in the art may be used to determine STING agonist activity. For example, STING agonist activity (or lack thereof) can be measured as described in Examples 11 and/or Example 12. For example, following the method described in Example 11, cells may be incubated with a compound comprising a S1 STING ligand. The cells may be lysed and Western Blotting performed. Western blots may be probed for phospho-STING and/or phospho-TBK1. Cells incubated with STING ligands which are not agonists will not result in detectable phospho-STING or phospho-TBK1 using the methods outlined above and in Examples 11. In another example, following the method described in Example 12, human skin fibroblasts may be pretreated for 2hours with a serial dilution of a test compounds, for example a compound comprising an S1 ligand, prior to stimulation with a STING agonist (e.g. 300 nM GSK STING agonist). Supernatants may then be harvested after STING agonist stimulation (e.g. after 20 h stimulation). IFN-a/b may be measured in the supernatants using HEK-Blue IFN-α/β bioassay (Invivogen) to determine a half-maximal inhibitory concentration of a test compound.
as §1, §2
In Figure 10A, HFF-1 cells were treated with 5 µM of compounds A11, A25, A26, or A30, or 0.5 µM STING antagonist control for 15 min followed prior to addition of 300 nM diABZI and incubation for 2 h or 5 h. The cells were lysed and analysed on WB. As additional controls, cells were left untreated (UT), treated with Lipofectamine (Lipo control) or with compounds A26 or A30 as single agent. The WB membrane was probed for p-STING, STING, p-IRF3, p-TBK1, and Vinculin.
as §3

[6] abbreviates: 5 µM compound 1 to 2 hours before, simultaneously with, or 15 minutes after 0.3 µM diABZI c3.

Structures are written as SMILES. Values joined by “and” are separate entries in the source; they are usually repeats but may differ in a detail not shown here. Equal entries are not always repeated. “Also recorded” adds a separate entry of the source.

T1 sequence (Q86WV6 whole entry, the tested form may be a part): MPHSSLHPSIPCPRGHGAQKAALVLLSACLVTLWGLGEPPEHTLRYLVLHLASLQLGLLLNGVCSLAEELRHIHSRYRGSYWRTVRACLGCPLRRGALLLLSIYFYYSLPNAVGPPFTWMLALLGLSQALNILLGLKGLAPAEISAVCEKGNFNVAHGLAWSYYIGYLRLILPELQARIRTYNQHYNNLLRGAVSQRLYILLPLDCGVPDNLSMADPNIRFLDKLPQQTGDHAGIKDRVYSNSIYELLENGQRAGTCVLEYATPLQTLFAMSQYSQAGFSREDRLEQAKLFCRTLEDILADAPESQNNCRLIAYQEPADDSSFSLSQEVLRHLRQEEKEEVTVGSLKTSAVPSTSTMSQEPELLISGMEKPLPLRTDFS

Take `CCn1nc(C)cc1C(=O)N=c1n(C)c2cc(C(N)=O)ccc2n1CCC(CCn1c(=NC(=O)c2cc(C)nn2CC)n(C)c2cc(C(N)=O)ccc21)OCC(=O)N1CCc2cc(OC)ccc2C1` (stereo not drawn) [A9, 1-(5-{5-Carbamoyl-2-[(1-ethyl-3-methyl-5-pyrazolyl)carbonylimino]-3-methyl-2,3-dihydro-1H-1,3-benzimidazol-1-yl}-3-[2-(6-methoxy-1,2,3,4-tetrahydro-2-isoquinolyl)-2-oxoethoxy]pentyl)-2-[(1-ethyl-3-methyl-5-pyrazolyl)carbonylimino]-3-methyl-2,3-dihydro-1H-1 ,3-benzimidazole-5-carboxamide]: on STING [1], the LC3B lipidation result is “reduced LC3B lipidation; also recorded: decrease in LC3B lipidation”, the P-TBK1 entry was “reduced P-TBK1 intensity” and the P-STING entry was “reduced intensity; also recorded: decrease in P-STING”. Also, the IFN media concentration at STING [2] (setting [6]) is listed as ~ 100 U/mL. In addition, on STING [2], the “secretion of Functional Type I IFN” value is “inhibits secretion” and the “secretion of CXCL10” value was “inhibits secretion”.
On to `CCn1nc(C)cc1C(=O)N=c1n(C)c2cc(C(N)=O)ccc2n1CCC(CCn1c(=NC(=O)c2cc(C)nn2CC)n(C)c2cc(C(N)=O)ccc21)OCC(=O)N1CCC[C@H]1c1cccc(OC)c1` (stereo partly drawn) [A11, 1-(3-{2-[(S)-2-(3-Methoxyphenyl)-1-pyrrolidinyl]-2-oxoethoxy}-5-{5-carbamoyl-2-[(1-ethyl-3-methyl-5-pyrazolyl)carbonylimino]-3-methyl-2,3-dihydro-1H-1,3-benzimidazol-1-yl}pentyl)-2-[(1-ethyl-3-methyl-5-pyrazolyl)carbonylimino]-3-methyl-2,3-dihydro-1H-1,3-benzimidazole-5-carboxamide], for which, on STING [1], the LC3B lipidation result is reported as “reduced LC3B lipidation”, the P-TBK1 entry is recorded as “reduced P-TBK1 intensity” and the P-STING entry was “reduced intensity; also recorded: decrease in P-STING”. Also, the “STING, TBK1 and IRF3 phosphorylation” value at STING [3] was “lower; also recorded: inhibited STING, IRF3 and TBK1 phosphorylation and activation”. In addition, the “STING, TBK1 and IRF1 phosphorylation” value at STING [4] was “lower; also recorded: inhibited STING, IRF3 and TBK1 phosphorylation and activation”. Besides, the “phosphorylation of STING, IRF1 or TBK1” value at STING [5] was “do not induce STING, IRF3 or TBK1 phosphorylation and activation alone”. For the same molecule, the IFN media concentration on STING [2] (setting [6]) is recorded as -10 - 20 U/mL. Further, on STING [2] (5 µM compound before, simultaneously with, or after diABZI c3, filled bars), the CXCL10 media concentration is -10 to 20 pg/mL. For the same molecule, on STING [2], the “secretion of Functional Type I IFN” value is “inhibits secretion” and the “secretion of CXCL10” value is “inhibits secretion”.
Consider `CCn1nc(C)cc1C(=O)N=c1n(C)c2cc(C(N)=O)ccc2n1CCC(CCn1c(=NC(=O)c2cc(C)nn2CC)n(C)c2cc(C(N)=O)ccc21)OCC(=O)N1CCC[C@H]1c1ccccc1` (stereo partly drawn) [A25, 1-(3-{2-[(S)-2-Phenyl-1-pyrrolidinyl]-2-oxoethoxy}-5-{5-carbamoyl-2-[(1-ethyl-3-methyl-5-pyrazolyl)carbonylimino]-3-methyl-2,3-dihydro-1H-1,3-benzimidazol-1-yl}pentyl)-2-[(1-ethyl-3-methyl-5-pyrazolyl)carbonylimino]-3-methyl-2,3-dihydro-1H-1,3-benzimidazole-5-carboxamide], for which the “STING, TBK1 and IRF3 phosphorylation” value at STING [3] is on record as “lower”. Further, the “STING, TBK1 and IRF1 phosphorylation” value at STING [4] is “lower”. The “phosphorylation of STING, IRF1 or TBK1” value on STING [5] was “do not induce STING, IRF3 or TBK1 phosphorylation and activation alone”.
Regarding `CCn1nc(C)cc1C(=O)N=c1n(C)c2cc(C(N)=O)ccc2n1CCC(CCn1c(=NC(=O)c2cc(C)nn2CC)n(C)c2cc(C(N)=O)ccc21)OCC(=O)N1CCC[C@H]1C(=O)N1CCc2cc(OC)ccc2C1` (stereo partly drawn) [A26, 1-[3-(2-{(S)-2-[(6-Methoxy-1,2,3,4-tetrahydro-2-isoquinolyl)carbonyl]-1-pyrrolidinyl}-2-oxoethoxy)-5-{5-carbamoyl-2-[(1-ethyl-3-methyl-5-pyrazolyl)carbonylimino]-3-methyl-2,3-dihydro-1H-1,3-benzimidazol-1-yl}pentyl]-2-[(1-ethyl-3-methyl-5-pyrazolyl)carbonylimino]-3-methyl-2,3-dihydro-1H-1,3-benzimidazole-5-carboxamide], the “STING, TBK1 and IRF3 phosphorylation” value at STING [3] was “lower; also recorded: inhibited STING, IRF3 and TBK1 phosphorylation and activation”. On STING [4], the “STING, TBK1 and IRF1 phosphorylation” value is “lower; also recorded: inhibited STING, IRF3 and TBK1 phosphorylation and activation”. For the same molecule, on STING [5], the “phosphorylation of STING, IRF1 or TBK1” value is “do not induce STING, IRF3 or TBK1 phosphorylation and activation alone”.
Regarding `CCn1nc(C)cc1C(=O)N=c1n(C)c2cc(C(N)=O)ccc2n1CCC(CCn1c(=NC(=O)c2cc(C)nn2CC)n(C)c2cc(C(N)=O)ccc21)OCC(=O)N1CCOC[C@@H]1c1ccccc1` (stereo partly drawn) [A30, 1-(3-{2-[(S)-3-Phenyl-4-morpholinyl]-2-oxoethoxy}-5-{5-carbamoyl-2-[(1-ethyl-3-methyl-5-pyrazolyl)carbonylimino]-3-methyl-2,3-dihydro-1H-1,3-benzimidazol-1-yl}pentyl)-2-[(1-ethyl-3-methyl-5-pyrazolyl)carbonylimino]-3-methyl-2,3-dihydro-1H-1,3-benzimidazole-5-carboxamide], at STING [3], the “STING, TBK1 and IRF3 phosphorylation” value was “lower; also recorded: inhibited STING, IRF3 and TBK1 phosphorylation and activation”. In addition, the “STING, TBK1 and IRF1 phosphorylation” value at STING [4] is “lower; also recorded: inhibited STING, IRF3 and TBK1 phosphorylation and activation”. In addition, on STING [5], the “phosphorylation of STING, IRF1 or TBK1” value was “do not induce STING, IRF3 or TBK1 phosphorylation and activation alone”.
As to `CCn1nc(C)cc1C(=O)Nc1nc2cc(C(N)=O)cc(OC)c2n1C/C=C/Cn1c(NC(=O)c2cc(C)nn2CC)nc2cc(C(N)=O)cc(OCCCN3CCOCC3)c21` [diABZI c3, reference compound], at STING [2] (cells treated with diABZI c3 alone), the CXCL10 media concentration is ~ 60 pg/mL. In addition, the IFN media concentration on STING [2] (cells treated with only diABZI c3) was ~ 200 U/mL and ~ 100 U/mL.

The values above are taken from patent EP4663204A1, “COMPOUNDS USEFUL FOR THE MODULATION OF THE ACTIVITY OF STING” (Sulis Therapeutics ApS, priority 2024, dated 2025).
